From US7820693B2, “1-(2H)-isoquinolone derivative” (Chugai Seiyaku Kabushiki Kaisha, priority 2005, dated 2010)

Columns and labels:
[1] = system: human colon cancer cell line HCT116; test: Measurement of cell growth inhibitory activity (Cell Counting Kit-8); type: cell-based; settings: HCT-116, 96 h, HCT116, 2,000 cells/well, cultured 4 days
Description: Cancer cell growth inhibitory activity was measured using Cell Counting Kit-8 manufactured by Dojindo Laboratories. The human colon cancer cell line HCT116 obtained from American Type Culture Collection (Virginia, U.S.A) was inoculated in a 96-well culture plate at a concentration of 2,000 cells/well. Thereafter, a certain concentration of compound was added thereto, and the obtained mixture was then cultured at 37° C. in 5% CO2, 95% air for 4 days. On the 4th day of the culture, a Cell Counting Kit-8 solution was added to the culture product, and absorbance (measurement wavelength: 450 nm; reference wavelength: 615 nm) was measured in accordance with protocols included with the kit. Thereafter, 50% growth inhibitory concentration (IC50) was calculated.

[2] = Measurement of solubility (HPLC of filtrate); settings: for solubility at 2 h: thermodynamic from solid
Description: Measurement was carried out by preparing a four-point calibration curve (4,000 μM, 1,000 μM, 250 μM, and 31.3 μM) according to the internal standard method. A sample solution (100% DMSO) was freeze-dried, and each solution was then added thereto. The obtained mixture was stirred for 2 hours. Thereafter, a solution in which the sample had been dissolved was filtrated, and the filtrate was then analyzed with an analyzer. As an analysis method, the filtrate was measured by HPLC (HPLC). As dissolving solutions, a saline solution or a 50 mM sodium citrate-HCl buffer (pH 4.0) solution were used.

[3] = system: human colon cancer cell line HCT116 transplanted into the inguinal subcutis; test: Measurement of antitumor effect in tumor-bearing mouse; type: in vivo, BALB/c nude mouse; settings: HCT116 xenograft, 300 mg/kg orally, twice (day 0 and 7 days after), vs control group
Description: A representative example of the compound group of the present invention was measured in terms of antitumor effect.
Such antitumor effect was examined, using a tumor-bearing mouse produced by transplanting the human colon cancer cell line HCT116 obtained from American Type Culture Collection (Virginia, U.S.A) into the inguinal subcutis of a BALB/c nude mouse purchased from Charles River Laboratories Japan, Inc. The purchased nude mouse was quarantined for 1 week. Thereafter, approximately 5×10^6 HCT116 cells were transplanted subcutaneously. When the size of a tumor thereof became 200 mm^3, the mouse was subjected to the present experiment.
Each compound was suspended in a solution to be administered, and 0.2 ml of the solution was orally administered. Such administration was carried out twice in total, that is, on the initiation date of administration and 7 days after the first administration. The antitumor effect was calculated as a tumor growth inhibition by comparing the agent-treated group with a control group in terms of tumor growth, on 14 days after the initiation date of administration. Tumor growth inhibition (TGI)=(1−the tumor growth amount of agent-treated group/the tumor growth amount of control group)×100(%) The results are shown in Table 7.

[4] = 50 mM sodium citrate-HCl buffer (pH 4.0), pH 4, aqueous buffer

## CC(=O)NCC1CN(c2ccc3cc(-c4ccccc4C(F)(F)F)[nH]c(=O)c3c2)C(=O)O1 (stereo not shown) [Example 32, N-{2-oxo-3-[1-oxo-3-(2-trifluoromethylphenyl)-1,2-dihydroisoquinolin-7-yl]oxazolidin-5-ylmethyl}acetamide]
[1]
  IC50: 530 nM

## O=C(OCCOCCOCCOCCOCCOCCO)OC[C@@H]1CN(c2ccc3cc(-c4ccccc4C(F)(F)F)[nH]c(=O)c3c2)C(=O)O1 [Example C45, 2-[2-(2-{2-[2-(2-hydroxyethoxy)ethoxy]ethoxy}ethoxy)ethoxy]ethyl carbonate (S)-2-oxo-3-[1-oxo-3-(2-trifluoromethylphenyl)-1,2-dihydroisoquinolin-7-yl]oxazolidin-5-ylmethyl ester]
[2]; saline solution, saline or isotonic
  solubility at 2 h: > 2000 µM

## CC(C)[C@H](N)C(=O)OC[C@H]1CN(c2ccc3cc(-c4ccccc4C(F)(F)F)[nH]c(=O)c3c2)C(=O)O1.Cl [Example B9, (R)-2-oxo-3-[1-oxo-3-(2-trifluoromethylphenyl)-1,2-dihydroisoquinolin-7-yl]oxazolidin-5-ylmethyl(S)-2-amino-3-methyl-butanoate hydrochloride]
[2]; [4]
  solubility at 2 h: > 2000 µM

## CC(C)(OC(=O)c1ccccc1C(=O)[O-])[C@@H]1CN(c2ccc3cc(-c4ccccc4C(F)(F)F)[nH]c(=O)c3c2)C(=O)O1.[Na+] [Example C6]
[2]; no asterisk: saline solution, stirred 2 hours
  Solubility: >2000 µM

## O=C(OC[C@@H]1COC(=O)N1c1ccc2cc(-c3ccccc3C(F)(F)F)[nH]c(=O)c2c1)c1ccccc1 [Example 11, (R)-2-oxo-3-[1-oxo-3-(2-trifluoromethylphenyl)-1,2-dihydroisoquinolin-7-yl]oxazolidin-4-ylmethyl benzoate]
[1]
  IC50: 450 nM

## CN1C(=O)N(c2ccc3cc(-c4ccccc4C(F)(F)F)[nH]c(=O)c3c2)C[C@@H]1COCc1ccccc1 [Example 35, 7-((R)-4-benzyloxymethyl-3-methyl-2-oxoimidazolidin-1-yl)-3-(2-trifluoromethylphenyl)-2H-isoquinolin-1-one]
[1]
  IC50: 960 nM

## O=C1O[C@@H](CO)CN1c1ccc2cc(-c3ccccc3C(F)(F)F)[nH]c(=O)c2c1 [Example 14, 7-((R)-5-hydroxymethyl-2-oxooxazolidin-3-yl)-3-(2-trifluoromethylphenyl)-2H-isoquinolin-1-one]
[3]
  TGI (%) obtained 14 days after administration: 113%
[1]
  IC50: 300 nM

## O=C1O[C@H](CO)CN1c1ccc2cc(-c3ccccc3OC(F)(F)F)[nH]c(=O)c2c1 [Example 27, 7-((S)-5-hydroxymethyl-2-oxooxazolidin-3-yl)-3-(2-trifluoromethoxyphenyl)-2H-isoquinolin-1-one]
[1]
  IC50: 21 nM

## O=C1OC(CN2CCOCC2)CN1c1ccc2cc(-c3ccccc3C(F)(F)F)[nH]c(=O)c2c1 (stereo not shown) [Example 33, 7-(5-morpholin-4-ylmethyl-2-oxooxazolidin-3-yl)-3-(2-trifluoromethylphenyl)-2H-isoquinolin-1-one]
[1]
  IC50: 290 nM

## O=C1OC(CCO)CN1c1ccc2cc(-c3ccccc3C(F)(F)F)[nH]c(=O)c2c1 (stereo not shown) [Example 29, 7-[5-(2-hydroxyethyl)-2-oxooxazolidin-3-yl]-3-(2-trifluoromethylphenyl)-2H-isoquinolin-1-one]
[1]
  IC50: 91 nM

## CNCC(=O)OC[C@@H]1CN(c2ccc3cc(-c4ccccc4C(F)(F)F)[nH]c(=O)c3c2)C(=O)O1.Cl [Example B20, (S)-2-oxo-3-[1-oxo-3-(2-trifluoromethylphenyl)-1,2-dihydroisoquinolin-7-yl]oxazolidin-5-ylmethyl methylaminoacetate hydrochloride]
[2]; [4]
  solubility at 2 h: > 2000 µM

## O=C1CCCN1c1ccc2cc(-c3ccccc3C(F)(F)F)[nH]c(=O)c2c1 [Example 15, 7-(2-oxopyrrolidin-1-yl)-3-(2-trifluoromethylphenyl)-2H-isoquinolin-1-one]
[1]
  IC50: 110 nM

## CN1C(=O)N(c2ccc3cc(-c4ccccc4C(F)(F)F)[nH]c(=O)c3c2)C[C@@H]1CO [Example 36, 7-((R)-4-hydroxymethyl-3-methyl-2-oxoimidazolidin-1-yl)-3-(2-trifluoromethylphenyl)-2H-isoquinolin-1-one]
[1]
  IC50: 310 nM

## O=C1N(CCO)CCN1c1ccc2cc(-c3ccccc3C(F)(F)F)[nH]c(=O)c2c1 [Example 9, 7-[3-(2-hydroxyethyl)-2-oxoimidazolidin-1-yl]-3-(2-trifluoromethylphenyl)-2H-isoquinolin-1-one]
[1]
  IC50: 530 nM

## O=C1C=C(OCc2ccccc2)CN1c1ccc2cc(-c3ccccc3C(F)(F)F)[nH]c(=O)c2c1 [Example 8, 7-(4-benzyloxy-2-oxo-2,5-dihydropyrrol-1-yl)-3-(2-trifluoromethylphenyl)-2H-isoquinolin-1-one]
[1]
  IC50: 200 nM
